For 17 compounds, IC50 results are on record in patent US20160257697A1, “THIOPHENE-SUBSTITUTED TETRACYCLIC COMPOUNDS AND METHODS OFUSE THEREOF FOR THE TREATMENT OF VIRAL DISEASES” (priority 2013, published 2016).

Read-outs that look alike come from different tables or passages of the source.

As a reminder, the IC50 is the concentration at which inhibition is half-maximal.

Common to all, as to experiment: microbe, parasite or virus in culture
Holding throughout (format): cell-based, Hepatitis C virus (HCV)

Experiment [1] has as its system HCV replicon 1B. The settings on record: Replicon Assay B. For orientation: Replicon systems follow genome replication, usually without infectious particles.
The test system of experiment [2] is HCV replicon 1AQ30D. The settings on record: Replicon Assay B.
Experiment [3] has as its system HCV replicon 1A. The settings on record: Replicon Assay A. The essentials:
(§1)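 Read-out is replicon RNA per cell by real-time RT-PCR, normalised to cyclophilin mRNA amplified in the same well. Cells were exposed to compound for 3 days at 2000 cells/well in medium with 5% fetal bovine serum and 0.5% DMSO.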

The test system of experiment [4] is HCV replicon 1AY93H. The settings on record: Replicon Assay A. An outline of the steps: as §1
In experiment [5] the test system is HCV replicon 2B. The note with it: Replicon Assay A. The essentials:
as §1

Where [6] appears, read: Hepatitis C virus, read-out: 1A Q30D IC50 (nM), replicon 1AQ30D.
[7] abbreviates: read-out: 1A Y93H IC50, replicon 1AY93H.
The mark [8] stands for this setting: read-out: 1A Q30D IC50, HCV replicon 1A Q30D.
The mark [9] stands for this setting: read-out: 1A Y93H IC50, HCV replicon 1A Y93H.
The mark [10] stands for this setting: read-out: 2B IC50, HCV replicon 2B.
[11] abbreviates: Hepatitis C virus, read-out: 2B IC50 (nM), replicon 2B.
Where [12] appears, read: Hepatitis C virus, read-out: 1A Q30D IC50, HCV replicon 1A Q30D.
The mark [13] stands for this setting: Hepatitis C virus, HCV replicon 1B.
Setting [14] is: HCV replicon 1A Q30D, read-out: 1A Q30D IC50.
Setting [15] is: HCV replicon 1A Y93H, read-out: 1A Y93H IC50.
Setting [16] is: HCV replicon 2B, read-out: 2B IC50.

Take `COC(=O)N[C@H](C(=O)N1CCC[C@H]1c1ncc(-c2cc(F)c3c(c2)OC(c2ccc(C(C)(C)O)s2)n2c-3cc3cc(-c4cnc([C@@H]5CCCN5C(=O)[C@@H](NC(=O)OC)C(C)C)[nH]4)ccc32)[nH]1)C(C)C` (single isomer, unassigned) [Compound 84]: the IC50 in experiment [1] (replicon 1B) worked out at 2.5 pM; in experiment [2] (setting [6]), 0.5 nM; in experiment [3] (replicon 1A), 3.3 pM; in experiment [4] (setting [7]) it was 0.012 nM; in experiment [5] (read-out: 2B IC50, replicon 2B) it was 0.012 nM.

Turning to `COC(=O)NC(C(=O)N1[C@@H]2C[C@@H]2C[C@H]1c1ncc(-c2ccc3c(c2)cc2n3C(c3ccc(CC4CC4)s3)Oc3cc(-c4cnc([C@@H]5CCCN5C(=O)[C@@H](NC(=O)OC)C(C)C)[nH]4)cc(F)c3-2)[nH]1)C1CCOC(C)(C)C1` (single isomer, unassigned) [Compound 418], the IC50 in experiment [1] (HCV replicon 1B) came to 2.7 pM; in experiment [2] (setting [8]), 0.862 nM; in experiment [3] (HCV replicon 1A) it was 2.7 pM; in experiment [4] (setting [9]) it was 0.093 nM; in experiment [5] (setting [10]), 0.16 nM.

For the compound `COC(=O)NC(C(=O)N1CCC[C@H]1c1ncc(-c2ccc3c(c2)cc2n3C(c3ccc(C4CC4)s3)Oc3cc(-c4cnc([C@@H]5CCCN5C(=O)[C@@H](NC(=O)OC)C(C)C)[nH]4)cc(F)c3-2)[nH]1)C1C[C@@H](C)O[C@@H](C)C1` (single isomer, unassigned) [Compound 206], the IC50 in experiment [1] (Hepatitis C virus, replicon 1B) worked out at 2.6 pM; in experiment [2] (setting [6]), 2.91 nM; in experiment [3] (Hepatitis C virus, replicon 1A) it was 1.4 pM; in experiment [4] (Hepatitis C virus, read-out: 1A Y93H IC50 (nM), replicon 1AY93H), 0.16 nM; in experiment [5] (setting [11]), 0.16 nM.

Take `COC(=O)N[C@H](C(=O)N1[C@@H]2C[C@@H]2C[C@H]1c1ncc(-c2cc(F)c3c(c2)OC(c2ccc(C4CC4)s2)n2c-3cc3cc(-c4cnc([C@@H]5C[C@H]6C[C@H]6N5C(=O)[C@@H](NC(=O)OC)C(C)C)[nH]4)ccc32)[nH]1)C(C)C` (single isomer, unassigned) [Compound 87]: the IC50 in experiment [1] (Hepatitis C virus, replicon 1B) amounted to 1.3 pM; in experiment [2] (setting [6]), 0.15 nM; in experiment [3] (Hepatitis C virus, replicon 1A) it was 1.2 pM; in experiment [4] (setting [7]), 0.002 nM; in experiment [5] (read-out: 2B IC50, replicon 2B) it was 0.19 nM.

In the case of `COC(=O)NC(C(=O)N1CCC[C@H]1c1ncc(-c2cc(F)c3c(c2)OC(c2ccc(C)s2)n2c-3cc3cc(-c4cnc([C@@H]5CCCN5C(=O)[C@@H](NC(=O)OC)C5CCOCC5)[nH]4)ccc32)[nH]1)C(C)(C)F` (single isomer, unassigned) [Compound 108], the IC50 in experiment [1] (replicon 1B) came out at 2.7 pM; in experiment [2] (read-out: 1A Q30D IC50, replicon 1AQ30D) it was 1.15 nM; in experiment [3] (replicon 1A), 2.6 pM; in experiment [4] (setting [7]), 0.25 nM; in experiment [5] (read-out: 2B IC50, replicon 2B) it was 0.29 nM.

With `COC(=O)NC(C(=O)N1CCC[C@H]1c1ncc(-c2ccc3c(c2)cc2n3C(c3cc4c(s3)CCC4)Oc3cc(-c4cnc([C@@H]5CCCN5C(=O)[C@@H](NC(=O)OC)C(C)C)[nH]4)cc(C)c3-2)[nH]1)C1CCOC(C)(C)C1` (single isomer, unassigned) [Compound 853], the IC50 in experiment [1] (HCV replicon 1B) is 4.2 pM; in experiment [2] (setting [12]), 0.705 nM; in experiment [3] (HCV replicon 1A), > 3.6 pM; in experiment [4] (setting [9]) it was 0.085 nM; in experiment [5] (setting [10]), 0.011 nM.

Turning to `COC(=O)NC(C(=O)N1CCC[C@H]1c1ncc(-c2ccc3c(c2)cc2n3C(c3ccc(C4CC4)s3)Oc3cc(-c4cnc([C@@H]5C[C@H]6C[C@H]6N5C(=O)[C@@H](NC(=O)OC)C(C)C)[nH]4)cc(F)c3-2)[nH]1)C1C[C@@H](C)O[C@@H](C)C1` (single isomer, unassigned) [Compound 538], the IC50 in experiment [1] (setting [13]) came out at 3.26 pM; in experiment [2] (setting [12]), 0.136 nM; in experiment [3] (HCV replicon 1A) it was 4.7 pM; in experiment [4] (setting [9]), 0.00703 nM; in experiment [5] (setting [10]), 0.0513 nM.

`COC(=O)NC(C(=O)N1CCC[C@H]1c1ncc(-c2ccc3c(c2)c(F)c2n3C(c3ccc(C4CC4)s3)Oc3cc(-c4cnc([C@@H]5CCCN5C(=O)[C@@H](NC(=O)OC)C(C)C)[nH]4)cc(F)c3-2)[nH]1)C1CCOC(C)(C)C1` (single isomer, unassigned) [Compound 413]: the IC50 in experiment [1] (setting [13]) came out at 3 pM; in experiment [2] (setting [12]) it was 0.278 nM; in experiment [3] (Hepatitis C virus, HCV replicon 1A), 3 pM; in experiment [4] (Hepatitis C virus, read-out: 1A Y93H IC50, HCV replicon 1A Y93H), 0.0141 nM; in experiment [5] (Hepatitis C virus, read-out: 2B IC50, HCV replicon 2B), 0.0071 nM.

In the case of `COC(=O)N[C@H](C(=O)N1C[C@H](F)C[C@H]1c1ncc(-c2ccc3c(c2)cc2n3C(c3cc4ccccc4s3)Oc3cc(-c4cnc([C@@H]5CCCN5C(=O)[C@@H](NC(=O)OC)C5CCOCC5)[nH]4)ccc3-2)[nH]1)C(C)C` (single isomer, unassigned) [Compound 625], the IC50 in experiment [1] (setting [13]) was determined as 3.1 pM; in experiment [2] (setting [12]), 0.359 nM; in experiment [3] (HCV replicon 1A), 1.9 pM; in experiment [4] (setting [9]) it was 0.0049 nM; in experiment [5] (setting [10]), 0.145 nM.

In the case of `COC(=O)NC(C(=O)N1CCC[C@H]1c1ncc(-c2cc(F)c3c(c2)OC(c2ccc(C4CC4)s2)n2c-3cc3cc(-c4cnc([C@@H]5CCCN5C(=O)C(NC(=O)OC)C5C[C@@H](C)O[C@@H](C)C5)[nH]4)ccc32)[nH]1)C1C[C@@H](C)O[C@@H](C)C1` (single isomer, unassigned) [Compound 301], the IC50 in experiment [1] (Hepatitis C virus, replicon 1B) worked out at 2 pM; in experiment [2] (setting [6]) it was 0.33 nM; in experiment [3] (replicon 1A), 2.5 pM; in experiment [4] (setting [7]), 0.11 nM; in experiment [5] (setting [11]), 0.037 nM.

With `COC(=O)NC(C(=O)N1[C@@H]2C[C@@H]2C[C@H]1c1ncc(-c2ccc3c(c2)cc2n3C(c3ccc(CC4CC4)s3)Oc3cc(-c4cnc([C@@H]5CCCN5C(=O)[C@@H](NC(=O)OC)C(C)C)[nH]4)cc(F)c3-2)[nH]1)C1CCOC(C)(C)C1` (single isomer, unassigned) [Compound 416], the IC50 in experiment [1] (HCV replicon 1B) was determined as 3.1 pM; in experiment [2] (setting [8]) it was 1.24 nM; in experiment [3] (HCV replicon 1A) it was 2.3 pM; in experiment [4] (setting [9]), 0.0862 nM; in experiment [5] (setting [10]), 0.104 nM.

In the case of `COC(=O)N[C@H](C(=O)N1CCC[C@H]1c1ncc(-c2ccc3c(c2)OC(c2cc4sccc4s2)n2c-3cc3cc(-c4c[nH]c([C@@H]5C[C@H]6C[C@H]6N5C(=O)[C@@H](NC(=O)OC)C(C)C)n4)ccc32)[nH]1)C(C)C` (single isomer, unassigned) [Compound 716], the IC50 in experiment [1] (setting [13]) is 4 pM; in experiment [2] (setting [12]), 28 nM; in experiment [3] (HCV replicon 1A) it was 3.8 pM; in experiment [4] (setting [9]), 1.28 nM; in experiment [5] (setting [10]), 2.33 nM.

On to `COC(=O)NC(C(=O)N1CCCC1c1ncc(-c2cc(F)c3c(c2)OC(c2ccc(C4CC4)s2)n2c-3cc3cc(-c4cnc(C5CC6CC6N5C(=O)C(NC(=O)OC)C5CCOCC5)[nH]4)ccc32)[nH]1)C(C)C` (mixture of isomers) [Compound 651], for which the IC50 in experiment [1] (HCV replicon 1B) stood at 1.8 pM; in experiment [2] (setting [14]), 0.0178 nM; in experiment [3] (HCV replicon 1A), 1.3 pM; in experiment [4] (setting [15]), 0.0023 nM; in experiment [5] (setting [16]), 0.0081 nM.

For `COC(=O)NC(C(=O)N1CCC[C@H]1c1ncc(-c2cc(F)c3c(c2)OC(c2ccc(C4CC4)s2)n2c-3cc3cc(-c4cnc([C@@H]5CCCN5C(=O)[C@@H](NC(=O)OC)C5CCOCC5)[nH]4)ccc32)[nH]1)C(C)(C)F` (stereo partly shown) [Compound 168], the IC50 in experiment [1] (replicon 1B) is 1.5 pM; in experiment [2] (setting [6]), 0.011 nM; in experiment [3] (Hepatitis C virus, replicon 1A), 1.3 pM; in experiment [4] (setting [7]), 0.002 nM; in experiment [5] (read-out: 2B IC50, replicon 2B) it was 0.002 nM.

As for `COC(=O)NC(C(=O)N1CCC[C@H]1c1ncc(-c2ccc3c(c2)cc2n3C(c3ccc(F)s3)Oc3cc(-c4cnc([C@@H]5CCCN5C(=O)[C@@H](NC(=O)OC)C(C)C)[nH]4)cc(F)c3-2)[nH]1)C1C[C@@H](C)O[C@@H](C)C1` (single isomer, unassigned) [Compound 348], the IC50 in experiment [1] (Hepatitis C virus, replicon 1B) amounted to 2.7 pM; in experiment [2] (setting [6]), 0.387 nM; in experiment [3] (Hepatitis C virus, replicon 1A), 1.9 pM; in experiment [4] (setting [7]), 0.0149 nM; in experiment [5] (read-out: 2B IC50, replicon 2B) it was 0.0326 nM.

As to `COC(=O)N[C@H](C(=O)N1CCC[C@H]1c1ncc(-c2cc(F)c3c(c2)OC(c2ccc(C4(C)CC4)s2)n2c-3cc3cc(-c4cnc([C@@H]5CCCN5C(=O)[C@@H](NC(=O)OC)C(C)C)[nH]4)ccc32)[nH]1)C(C)C` (single isomer, unassigned) [Compound 836], the IC50 in experiment [1] (HCV replicon 1B) came to 1.8 pM; in experiment [2] (setting [14]), 0.297 nM; in experiment [3] (HCV replicon 1A), 2.1 pM; in experiment [4] (setting [15]), 0.016 nM; in experiment [5] (setting [16]), 0.06 nM.

`COC(=O)NC(C(=O)N1CCC[C@H]1c1ncc(-c2ccc3c(c2)cc2n3C(c3ccc(C4CC4)s3)Oc3cc(-c4cnc([C@@H]5CCCN5C(=O)[C@@H](NC(=O)OC)C(C)C)[nH]4)cc(F)c3-2)[nH]1)C1C[C@H](C)O[C@@H](C)C1` (single isomer, unassigned) [Compound 403]: the IC50 in experiment [1] (Hepatitis C virus, replicon 1B) came to 3.3 pM; in experiment [2] (setting [6]) it was 0.0703 nM; in experiment [3] (Hepatitis C virus, replicon 1A) it was 2.5 pM; in experiment [4] (setting [7]), 0.0067 nM; in experiment [5] (read-out: 2B IC50, replicon 2B), 0.007 nM.
